Reference: patent publication US10125184B2, “Apolipoprotein E polypeptides and their use” (priority 2011, dated 2018)

Experiments:
Huh7.5.1 cells = assay: Cytotoxicity/cell viability assay (CellTiter-Glo); type: cell-based; settings: 48 hours; hEP up to 100 μg/ml (~14 μM)
Procedure: FIGS. 1A-1C. A human apoE derived peptide (hEP) suppresses HCV infection. (A) Schematic illustration of apoE protein domains and the amino acid sequences of hEP and mEP peptides. The amino acid sequences shown are hEP-1 (SEQ ID NO: 6) and mEP (SEQ ID NO: 20). (B) Dose dependent inhibition of HCVcc infection by hEP. Huh7.5.1 cells were infected with JFH-1 HCVcc-Luc (MOI˜0.5) in the presence of hEP or mEP for 2 hours. After removal of virus and peptides, cells were further incubated for 48 hours prior to luciferase assay. Data are presented as % inhibition relative to control infections in which cells were treated with DMSO (0%). Results are expressed as mean±standard deviation (s.d.) (n=3). (C). Huh7.5.1 cells were treated with hEP or DMSO at indicated doses for 48 hours. The effect of hEP on cell viability was measured by a CellTiter Glo assay kit.
Huh7.5.1 cells (10^5 per well) were treated with hEP or DMSO at various concentrations for 48 hours in 24-well plates. The numbers of viable cells in culture were determined using the CELLTITER-GLO® Cell Viability Luminescent Assay kit according to the manufacturer's instruction (Promega).

HCVcc-luc [1] = assay: Time-of-addition assay; type: cell-based, Hepatitis C virus; settings: 10 nM bafilomycin A1
Procedure: FIGS. 5A-5D. hEP inhibits HCV entry at the attachment step. (A) HCVcc-luc was first mixed with either scrambled peptide or hEP-2 (20 μg/ml) for one hour at room temperature. In Group 1, mixed virus was directly added to Huh7.5.1 cells, whereas in Group 2, virus was purified through ultracentrifuge at 28,000×g for 4 hours in order to remove peptide, and then used to infect Huh7.5.1 cells. **p<0.005. (B) The kinetics of hEP- and bafilomycin A1-mediated inhibition were determined by time-of-addition assays, as described in the examples section. Fitted lines represent sigmoidal time-dependent curves (mean of n=3; error bars, s.d.). […] Heparin (200 μg/ml), anti-CD81 monoclonal antibody (5 μg/ml), hEP (20 μg/ml), or bafilomycin A1 (10 nM) were present in the media either continuously, during the 4° C. incubation only (attachment), or during the 37° C. incubation phase only (post-attachment). % Inhibition was calculated as 100-percent infection relative to control infections containing DMSO or an isotype antibody control containing 0.01% sodium azide (for anti-CD81 only) (mean of n=3; error bars, s.d.). (D) The effects of hEP (2.7 μM) or scrambled peptide on HCV binding were determined as described in the examples section. Results were calculated as relative RNA copies with numbers obtained from the scrambled peptide treated wells set to 100 (mean of n=3; error bars, s.d.). **p<0.005. […]

HCVcc-luc [2] = assay: Attachment versus post-attachment inhibition assay; type: cell-based, Hepatitis C virus; settings: heparin 200 μg/ml, anti-CD81 5 μg/ml, hEP 20 μg/ml, bafilomycin A1 10 nM
Procedure: FIGS. 5A-5D. hEP inhibits HCV entry at the attachment step. (A) HCVcc-luc was first mixed with either scrambled peptide or hEP-2 (20 μg/ml) for one hour at room temperature. In Group 1, mixed virus was directly added to Huh7.5.1 cells, whereas in Group 2, virus was purified through ultracentrifuge at 28,000×g for 4 hours in order to remove peptide, and then used to infect Huh7.5.1 cells. **p<0.005. (B) The kinetics of hEP- and bafilomycin A1-mediated inhibition were determined by time-of-addition assays, as described in the examples section. Fitted lines represent sigmoidal time-dependent curves (mean of n=3; error bars, s.d.). (C) HCVcc-Luc was added to Huh7.5.1 cells at 4° C. and incubated for 1.5 hrs. Unbound virus was removed by 2 washes with cold media, fresh media was added, and the cells were shifted to 37° C. to allow synchronous infection to proceed. Heparin (200 μg/ml), anti-CD81 monoclonal antibody (5 μg/ml), hEP (20 μg/ml), or bafilomycin A1 (10 nM) were present in the media either continuously, during the 4° C. incubation only (attachment), or during the 37° C. incubation phase only (post-attachment). % Inhibition was calculated as 100-percent infection relative to control infections containing DMSO or an isotype antibody control containing 0.01% sodium azide (for anti-CD81 only) (mean of n=3; error bars, s.d.). (D) The effects of hEP (2.7 μM) or scrambled peptide on HCV binding were determined as described in the examples section. Results were calculated as relative RNA copies with numbers obtained from the scrambled peptide treated wells set to 100 (mean of n=3; error bars, s.d.). **p<0.005.
To investigate the mechanistic action of hEP, three sets of experiments were conducted. First, hEP-2 (SEQ ID NO: 9) or scrambled peptide-treated HCVcc were purified through ultracentrifugation to remove the peptide and then used to infect naïve Huh7.5.1 cells. […] Second, to determine the kinetics of inhibition, a time-of-addition experiment was conducted. HCV remained sensitive to bafilomycin A1, a fusion inhibitor that prevents endosome acidification, until 3 hours after the 37° C. temperature shift (FIG. 5B), which is consistent with previous reports (Koutsoudakis et al., J Virol 2006; 80:5308-5320). […] In order to determine whether hEP-2 (SEQ ID NO: 9) blocks infection at the initial attachment step or a downstream event in the HCV entry process, hEP-2 (SEQ ID NO: 9) was either added together with HCVcc to cells during the 4° C. attachment step only, and then removed prior to shifting the temperature to 37° C., or added only after the temperature shift. As a positive control, hEP-1 was present during the entire course of the experiment. […] Finally, the direct binding of virions to cell surface was measured using a real-time PCR based assay.

## C[C@H](N)C(=O)N[C@@H]1[C@H]2C(=C(O)C[C@@H](O)[C@@H]2O)C(=O)O[C@]1(C)C(Cl)Cl [Bactobolin, reference compound]
Huh7.5.1 cells
  Cytotoxicity (cell viability): induced significant cell death

## CO/C1=C\C(C)=C\[C@@H](C)[C@@H](O)[C@@H](C)C/C(C)=C/C=C/[C@H](OC)[C@@H]([C@@H](C)[C@@H](O)[C@H](C)[C@@]2(O)C[C@@H](O)[C@H](C)[C@@H](C(C)C)O2)OC1=O [bafilomycin A1, reference compound]
HCVcc-luc [1]
  Time after 37° C. temperature shift until which HCV remained sensitive: ≤ 3 h
HCVcc-luc [2]
  Inhibition when present after the temperature shift only (post-attachment): most effective
